# Laboratory results: PubChem BioAssay (NCI)
#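 Dose response: 5 concentrations. Exposure: 48 h. Format: 96-well plates. Endpoint: linear interpolation; highest concentration if not reached. The concentration for full growth arrest is given as TGI.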
# Assays:
# Test in all cases: DTP human tumour cell line panel, 48 h
# HOP-92 NSCLC = system: HOP-92 NSCLC
# SF-295 CNS = system: SF-295 CNS
# DMS 114 small cell lung = system: DMS 114 small cell lung
# HCC-2998 colon = system: HCC-2998 colon
# M14 melanoma = system: M14 melanoma
# DMS 273 small cell lung = system: DMS 273 small cell lung
# A498 renal = system: A498 renal
# UACC-62 melanoma = system: UACC-62 melanoma
# COLO 205 colon = system: COLO 205 colon
# CAKI-1 renal = system: CAKI-1 renal
# NCI-H23 lung = system: NCI-H23 lung
# HT29 colon = system: HT29 colon
# SF-539 CNS = system: SF-539 CNS
# UACC-257 melanoma = system: UACC-257 melanoma
# OVCAR-8 ovarian = system: OVCAR-8 ovarian
# KM12 colon = system: KM12 colon
# OVCAR-5 ovarian = system: OVCAR-5 ovarian
# SK-MEL-28 melanoma = system: SK-MEL-28 melanoma
# SNB-19 CNS = system: SNB-19 CNS
# OVCAR-3 ovarian = system: OVCAR-3 ovarian
# U251 CNS = system: U251 CNS
# SN12C renal = system: SN12C renal
# HCT-116 colon = system: HCT-116 colon
# SF-268 CNS = system: SF-268 CNS
# RXF-631 renal = system: RXF-631 renal
# EKVX NSCLC = system: EKVX NSCLC
# 786-0 renal = system: 786-0 renal
# HOP-62 NSCLC = system: HOP-62 NSCLC
# XF 498 CNS = system: XF 498 CNS
# SK-MEL-5 melanoma = system: SK-MEL-5 melanoma
# SNB-75 CNS = system: SNB-75 CNS
# LOX IMVI melanoma = system: LOX IMVI melanoma
# K-562 leukemia = system: K-562 leukemia
# ACHN renal = system: ACHN renal
# HCT-15 colon = system: HCT-15 colon
# NCI-H226 lung = system: NCI-H226 lung
# A549 NSCLC = system: A549 NSCLC
# HL-60(TB) leukemia = system: HL-60(TB) leukemia
# NCI-H522 lung = system: NCI-H522 lung
# LXFL 529 NSCLC = system: LXFL 529 NSCLC
# SW-620 colon = system: SW-620 colon
# SNB-78 CNS = system: SNB-78 CNS
# KM20L2 colon = system: KM20L2 colon
# NCI-H460 lung = system: NCI-H460 lung
# RPMI-8226 leukemia = system: RPMI-8226 leukemia
# TK-10 renal = system: TK-10 renal
# CCRF-CEM leukemia = system: CCRF-CEM leukemia
# MOLT-4 leukemia = system: MOLT-4 leukemia
# SR leukemia = system: SR leukemia
# M19-MEL melanoma = system: M19-MEL melanoma
# SK-MEL-2 melanoma = system: SK-MEL-2 melanoma
# DLD-1 colon = system: DLD-1 colon
# OVCAR-4 ovarian = system: OVCAR-4 ovarian
# RXF 393 renal = system: RXF 393 renal
# SK-OV-3 ovarian = system: SK-OV-3 ovarian
# HOP-18 NSCLC = system: HOP-18 NSCLC
# IGROV1 ovarian = system: IGROV1 ovarian
# MALME-3M melanoma = system: MALME-3M melanoma
# UO-31 renal = system: UO-31 renal
smiles,measurement,setting,value
COc1ccc2c(c1)CCc1cnn(C3OC(COC(C)=O)C(OC(C)=O)C(OC(C)=O)C3OC(C)=O)c1-2 (stereo not given),TGI,HOP-92 NSCLC,51.5 µM
same,TGI,SF-295 CNS,> 100 µM
same,TGI,DMS 114 small cell lung,> 100 µM
same,TGI,HCC-2998 colon,> 100 µM
same,TGI,M14 melanoma,> 100 µM
same,TGI,DMS 273 small cell lung,> 100 µM
same,TGI,A498 renal,> 100 µM
same,TGI,UACC-62 melanoma,> 100 µM
same,TGI,COLO 205 colon,> 100 µM
same,TGI,CAKI-1 renal,> 100 µM
same,TGI,NCI-H23 lung,> 100 µM
same,TGI,HT29 colon,> 100 µM
same,TGI,SF-539 CNS,> 100 µM
same,TGI,UACC-257 melanoma,> 100 µM
same,TGI,OVCAR-8 ovarian,> 100 µM
same,TGI,KM12 colon,> 100 µM
same,TGI,OVCAR-5 ovarian,> 100 µM
same,TGI,SK-MEL-28 melanoma,> 100 µM
same,TGI,SNB-19 CNS,> 100 µM
same,TGI,OVCAR-3 ovarian,56.7 µM
same,TGI,U251 CNS,65.6 µM
same,TGI,SN12C renal,> 100 µM
same,TGI,HCT-116 colon,> 100 µM
same,TGI,SF-268 CNS,> 100 µM
same,TGI,RXF-631 renal,> 100 µM
same,TGI,EKVX NSCLC,> 100 µM
same,TGI,786-0 renal,75.6 µM
same,TGI,HOP-62 NSCLC,> 100 µM
same,TGI,XF 498 CNS,52.1 µM
same,TGI,SK-MEL-5 melanoma,> 100 µM
same,TGI,SNB-75 CNS,> 100 µM
same,TGI,LOX IMVI melanoma,> 100 µM
same,TGI,K-562 leukemia,> 100 µM
same,TGI,ACHN renal,> 100 µM
same,TGI,HCT-15 colon,> 100 µM
same,TGI,NCI-H226 lung,> 100 µM
same,TGI,A549 NSCLC,> 100 µM
same,TGI,HL-60(TB) leukemia,> 100 µM
same,TGI,NCI-H522 lung,31.7 µM
same,TGI,LXFL 529 NSCLC,41.4 µM
same,TGI,SW-620 colon,36.2 µM
same,TGI,SNB-78 CNS,> 100 µM
same,TGI,KM20L2 colon,51.8 µM
same,TGI,NCI-H460 lung,> 100 µM
same,TGI,RPMI-8226 leukemia,53.8 µM
same,TGI,TK-10 renal,> 100 µM
same,TGI,CCRF-CEM leukemia,60.5 µM
same,TGI,MOLT-4 leukemia,74.3 µM
same,TGI,SR leukemia,70.5 µM
same,TGI,M19-MEL melanoma,> 100 µM
same,TGI,SK-MEL-2 melanoma,> 100 µM
same,TGI,DLD-1 colon,> 100 µM
Cc1c2ccccc2c(CO)c2cc(F)c3ccccc3c12,TGI,HOP-92 NSCLC,78.4 µM
same,TGI,SF-295 CNS,57.8 µM
same,TGI,DMS 114 small cell lung,34.2 µM
same,TGI,HCC-2998 colon,> 100 µM
same,TGI,OVCAR-4 ovarian,98.2 µM
same,TGI,DMS 273 small cell lung,32 µM
same,TGI,A498 renal,> 100 µM
same,TGI,UACC-62 melanoma,> 100 µM
same,TGI,COLO 205 colon,32.2 µM
same,TGI,CAKI-1 renal,79.4 µM
same,TGI,RXF 393 renal,61.5 µM
same,TGI,NCI-H23 lung,> 100 µM
same,TGI,HT29 colon,49 µM
same,TGI,SK-OV-3 ovarian,73.6 µM
same,TGI,SF-539 CNS,> 100 µM
same,TGI,UACC-257 melanoma,> 100 µM
same,TGI,OVCAR-8 ovarian,41.4 µM
same,TGI,KM12 colon,56.3 µM
same,TGI,OVCAR-5 ovarian,80.6 µM
same,TGI,SK-MEL-28 melanoma,> 100 µM
same,TGI,SNB-19 CNS,> 100 µM
same,TGI,OVCAR-3 ovarian,61.3 µM
same,TGI,U251 CNS,50.3 µM
same,TGI,SN12C renal,33.3 µM
same,TGI,HCT-116 colon,40.3 µM
same,TGI,SF-268 CNS,71.2 µM
same,TGI,RXF-631 renal,30.7 µM
same,TGI,EKVX NSCLC,> 100 µM
same,TGI,HOP-62 NSCLC,92.9 µM
same,TGI,XF 498 CNS,51 µM
same,TGI,SK-MEL-5 melanoma,> 100 µM
same,TGI,HOP-18 NSCLC,89.9 µM
same,TGI,SNB-75 CNS,> 100 µM
same,TGI,LOX IMVI melanoma,36.1 µM
same,TGI,K-562 leukemia,> 100 µM
same,TGI,ACHN renal,58.2 µM
same,TGI,NCI-H226 lung,> 100 µM
same,TGI,A549 NSCLC,> 100 µM
same,TGI,HL-60(TB) leukemia,61 µM
same,TGI,NCI-H522 lung,26.3 µM
same,TGI,IGROV1 ovarian,63.7 µM
same,TGI,SW-620 colon,> 100 µM
same,TGI,SNB-78 CNS,69.1 µM
same,TGI,KM20L2 colon,48.6 µM
same,TGI,TK-10 renal,71.8 µM
same,TGI,MALME-3M melanoma,> 100 µM
same,TGI,CCRF-CEM leukemia,68 µM
same,TGI,MOLT-4 leukemia,39.6 µM
same,TGI,UO-31 renal,> 100 µM
same,TGI,SR leukemia,70.7 µM
same,TGI,M19-MEL melanoma,> 100 µM
same,TGI,SK-MEL-2 melanoma,36.7 µM
same,TGI,DLD-1 colon,43.6 µM
